Measurements as given in patent publication US12370232B2, “Use of polyphenol containing sugar cane extracts for preventing, improving or treating a skin condition” (priority 2017, dated 2025).

Tests used:
tyrosinase = test: Tyrosinase inhibition assay; type: biochemical
Procedure: A tyrosinase inhibition assay was performed to determine the tyrosinase inhibition potential of an extract derived from sugar cane of the present disclosure. […]
To measure tyrosinase inhibition potential of an extract derived from sugar cane of the present disclosure, tyrosinase was added to a mixture of a test sample solution containing an extract derived from sugar cane, L-DOPA, and phosphate buffer (pH 6.8), which was then incubated at 37° C. for 5 hours. Tyrosinase activity was determined through the amount of dopachrome production in the mixture, which was measured by optical density at 450 nm. Dopachrome is a cyclization product of L-DOPA, an intermediate in the biosynthesis of melanin.

MMP-1 = MMP-1 inhibition assay in UV irradiated human skin cells (zymography); type: cell-based
Procedure: The UV protection function of an extract derived from sugar cane of the present disclosure on skin using human skin cells was investigated. MMP-1, one of the key matrix metalloproteinases (MMPs) that is viewed as an indicator for tissue integrity breakdown and wrinkle formation, was used as a biomarker for skin damage. MMP-1 inhibitors have been related to skin aging prevention and therapy. An MMP-1 inhibition assay was performed to determine the MMP-1 inhibition potential of an extract derived from sugar cane of the present disclosure. […] In order to determine the UV protection ability of a test sample of an extract derived from sugar cane of the present disclosure, human skin cells were treated with (and without) the test sample followed by UV irradiation. The treated cells were then disrupted by subjection to several freeze-thaw cycles, and the proteins were obtained by centrifugation. Using the collected lysate, zymography was used to determine the enzymatic activity of secreted MMP-1. In the zymography, the proteins were separated by electrophoresis under denaturing (sodium dodecyl sulfate, SDS), nonreducing conditions. The separation occurred in a polyacrylamide gel containing a collagen substrate that was co-polymerized with the acrylamide. […] After electrophoresis, the gel was washed and subsequently incubated in an appropriate activation buffer. During this incubation, the concentrated, renatured MMPs in the gel digested the collagen substrate. After incubation, the gel was stained with Coomassie® Blue, and the MMPs were detected as clear bands against a blue background of undegraded substrate. The clear bands in the gel was quantified by densitometry. Avobenzone, a known MMP-1 inhibitor, was used as an assay control.

## O=c1cc(CO)occ1O [Kojic Acid, Kojic acid]
tyrosinase
  Concentration inducing the maximum inhibition: 1000 µM
tyrosinase; Conc. 3.91 uM
  Inhibition (%) Result: −11.66%
tyrosinase; Conc. 7.81 uM
  Inhibition (%) Result: −9.33%
tyrosinase; Conc. 15.63 uM
  Inhibition (%) Result: −4.66%
tyrosinase; Conc. 31.25 uM
  Inhibition (%) Result: 1.23%
tyrosinase; Conc. 62.50 uM
  Inhibition (%) Result: 12.35%
tyrosinase; Conc. 125.00 uM
  Inhibition (%) Result: 30.45%
tyrosinase; Conc. 250.00 uM
  Inhibition (%) Result: 52.40%
tyrosinase; Conc. 500.00 uM
  Inhibition (%) Result: 75.45%
tyrosinase; Conc. 1000.00 uM
  Inhibition (%) Result: 90.12%
tyrosinase; at 1000 μM
  Maximum inhibition achieved: 90.12%

## COc1ccc(C(=O)CC(=O)c2ccc(C(C)(C)C)cc2)cc1 [avobenzone, Avobenzone]
MMP-1
  Concentration inducing the maximum inhibition: 10%
MMP-1; Conc 0.31 %
  MMP-1 inhibition (%) Average: 5.0%
  MMP-1 inhibition (%) Replicate 2: 5.0%
MMP-1; Conc 0.63 %
  MMP-1 inhibition (%) Average: 44.1%
  MMP-1 inhibition (%) Replicate 1: 22.51%
  MMP-1 inhibition (%) Replicate 2: 65.72%
MMP-1; Conc 1.25 %
  MMP-1 inhibition (%) Average: 48.5%
  MMP-1 inhibition (%) Replicate 1: 56.96%
  MMP-1 inhibition (%) Replicate 2: 39.99%
MMP-1; Conc 2.50 %
  MMP-1 inhibition (%) Average: 79.8%
  MMP-1 inhibition (%) Replicate 1: 77.44%
  MMP-1 inhibition (%) Replicate 2: 82.22%
MMP-1; Conc 5.00 %
  MMP-1 inhibition (%) Average: 90.7%
  MMP-1 inhibition (%) Replicate 1: 85.34%
  MMP-1 inhibition (%) Replicate 2: 96.03%
MMP-1; Conc 10.00 %
  MMP-1 inhibition (%) Average: 97.5%
  MMP-1 inhibition (%) Replicate 1: 95.44%
  MMP-1 inhibition (%) Replicate 2: 99.52%
MMP-1; at 10%
  Maximum inhibition achieved: 97.50%
MMP-1; effective concentration at 50% of maximal inhibition
  EC50: 1.22%
